Assay results as given in patent US12060408B2, “Screening assays, modulators and modulation of activation of Receptor for Advanced Glycation End-products (RAGE)” (Monash University, priority 2017, dated 2024).

Experiments:
CCR2 = target: T1, CCR2 (Mus musculus, UniProt P51683); details: mouse models of multiple sclerosis, renal ischemia-reperfusion injury, ureteric obstruction, diabetic nephropathy; rat model of arthritis; cited from earlier work
T1 construct: host or cells: mouse models (and one rat model) in vivo

RAGE = assay: Ang II-induced pro-inflammatory signalling (p65-NFκB expression) in AT1R-CHO / RAGE-AT1R-CHO cells; assay type: cell-based, human; details: pre-treatment with mCherry-S391A-RAGE362-404 0.4 ng/ml; FIG. 10G
murine SVEC = assay: Induction of ICAM-1 by Ang II in murine SVEC transfected with RAGE constructs (RT-PCR); assay type: cell-based, mouse; details: transfected construct (FIG. 12)
Text: FIG. 12A. The effect of transfection of murine SVEC with RAGE or RAGE mutants on the induction of ICAM-1 by Ang II compared to vector alone (pc-Neo) as a control, as measured by RT-PCR. Data are mean±SEM; n=6-8 per group. * vs untreated control, # vs neo+Ang II, p<0.05.
FIG. 12B. The effect of transfection with truncated RAGE mutants on the induction of ICAM-1 by Ang II in murine SVEC to identify the smallest fragments with inhibitory activity. Data are mean±SEM; n=6-8 per group, * vs no treatment control, p<0.05.
FIG. 12D. The effect of transfection with single site-specific alanine or lysine mutants of RAGE370-390 on the induction of ICAM-1 by Ang II in murine SVEC. Data are mean±SEM; n=6-8 per group, * vs no treatment control, p<0.05.
Cellular Expression of Pro-Inflammatory Markers and Mediators by Quantitative Real-Time PCR
After 2 hours of exposure to Ang II (1 μM) or the RAGE ligand, S100A8/A9 (5 ng/ml) cells were placed in Trizol, mRNA extracted and cDNA synthesized. Changes in the gene expression of the NFκB subunit, p65 (RelA) or NFκB-activated target genes (e.g ICAM-1, VCAM-1) were estimated by quantitative real-time RT-PCR, performed using the TaqMan system based on real-time detection of accumulated fluorescence (ABI Prism 7700, Perkin-Elmer Inc, PE Biosystems, Foster City, CA, USA). […]

CCR4 = target: T2, CCR4 (Homo sapiens, UniProt P51679); assay: Receptor-HIT BRET, β-arrestin2/Venus with RAGE/Rluc8 and CCR4; assay type: cell-based
T2 construct: expressed in transfected cells; host or cells: HEK293FT, transient
Text: Bioluminescence Resonance Energy Transfer (BRET)
BRET is an established technology for studying protein-protein proximity in live cells, particularly involving GPCRs (Pfleger and Eidne, 2006). One protein of interest was linked to a bioluminescent donor enzyme, Rluc8, a variant of Renilla luciferase, and a second linked to an acceptor fluorophore, Venus, a variant of green fluorescent protein. If in close proximity (<10 nm), energy resulting from the rapid oxidation of a cell-permeable coelenterazine substrate by the donor can transfer to the acceptor, which in turn fluoresces at a longer characteristic wavelength.
Plasmids were transiently co-expressed in human embryonic kidney (HEK) 293FT cells and BRET measurements taken at 37° C. using a POLARstar Omega or LUMIstar plate reader (BMG Labtech, Mornington, Victoria, Australia) with 460-490 nm (‘donor emission’) and 520-550 nm (‘acceptor emission’) filters, or a VICTOR Light plate reader (Perkin Elmer, Glen Waverley, Victoria, Australia) with 400-475 nm (‘donor emission’) and 520-540 nm (‘acceptor emission’) filters, or a CLARIOstar plate reader (BMG Labtech, Mornington, Victoria, Australia) with 420-480 nm (‘donor emission’) and 520-620 nm (‘acceptor emission’) filters.
The BRET ratio was calculated by subtracting the ratio of ‘acceptor emission’ over ‘donor emission’ for a cell sample expressing Rluc8-tagged protein alone from the same ratio for a cell sample expressing both Rluc8 and Venus-tagged proteins. Alternatively, the ligand-induced BRET signal was calculated by subtracting the ratio of ‘acceptor emission’ over ‘donor emission’ for a vehicle-treated cell sample from the same ratio for a second aliquot of the same cells treated with agonist.
For BRET kinetic assays, the final pre-treatment reading is presented at the zero time point (time of ligand/vehicle addition). For the saturation assay, fluorescence after light excitation was measured on an EnVision 2102 multi-label plate reader (PerkinElmer, Glen Waverley, Victoria, Australia) using a 485/14 excitation filter, 535/25 emission filter and D505 mirror. […]

T1 sequence (P51683 whole entry, the tested form may be a part): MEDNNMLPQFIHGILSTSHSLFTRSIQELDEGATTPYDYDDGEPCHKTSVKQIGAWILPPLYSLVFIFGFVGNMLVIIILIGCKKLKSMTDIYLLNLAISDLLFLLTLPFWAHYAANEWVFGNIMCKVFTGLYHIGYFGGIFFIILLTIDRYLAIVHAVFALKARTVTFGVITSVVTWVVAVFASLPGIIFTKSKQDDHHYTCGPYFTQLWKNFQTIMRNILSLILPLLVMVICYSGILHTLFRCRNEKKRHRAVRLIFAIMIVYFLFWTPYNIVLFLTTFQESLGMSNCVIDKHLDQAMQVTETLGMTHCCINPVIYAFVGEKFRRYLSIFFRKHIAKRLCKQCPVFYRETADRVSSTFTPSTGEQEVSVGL
T2 sequence (P51679 whole entry): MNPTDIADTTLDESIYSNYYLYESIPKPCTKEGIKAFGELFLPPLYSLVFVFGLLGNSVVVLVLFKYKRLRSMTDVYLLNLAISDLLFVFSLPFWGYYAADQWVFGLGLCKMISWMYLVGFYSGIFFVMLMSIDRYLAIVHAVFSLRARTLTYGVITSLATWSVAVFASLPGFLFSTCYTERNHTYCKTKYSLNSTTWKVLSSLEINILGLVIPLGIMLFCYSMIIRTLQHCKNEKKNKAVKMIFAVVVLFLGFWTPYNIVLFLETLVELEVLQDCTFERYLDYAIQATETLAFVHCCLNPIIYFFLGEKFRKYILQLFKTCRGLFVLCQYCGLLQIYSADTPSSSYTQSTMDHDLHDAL
T2 sequence (P32121 whole entry partner): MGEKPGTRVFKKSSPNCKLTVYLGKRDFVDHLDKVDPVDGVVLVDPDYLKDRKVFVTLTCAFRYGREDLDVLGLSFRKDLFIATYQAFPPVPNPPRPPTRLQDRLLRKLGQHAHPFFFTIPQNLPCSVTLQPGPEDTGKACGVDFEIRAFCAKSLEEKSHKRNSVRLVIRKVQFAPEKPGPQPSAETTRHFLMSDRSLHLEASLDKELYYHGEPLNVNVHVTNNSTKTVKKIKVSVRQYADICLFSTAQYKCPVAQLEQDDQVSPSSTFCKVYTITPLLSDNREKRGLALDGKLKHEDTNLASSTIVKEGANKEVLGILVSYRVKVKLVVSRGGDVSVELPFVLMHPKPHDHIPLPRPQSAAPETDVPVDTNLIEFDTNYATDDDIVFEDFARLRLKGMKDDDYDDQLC

CCO[C@H]1CN(C2CCC(O)(c3ccc4c(c3)OCO4)CC2)C[C@@H]1NC(=O)CNC(=O)c1cccc(C(F)(F)F)c1 (stereo partly drawn) [INCB3344]
inflammation (CCR2): suppress inflammation

Cc1ccc2c(c1)C1(CCN(CCc3nc(-c4ccccc4)oc3C)CC1)OC(=O)N2 [RS-504393]
inflammation (CCR2): suppress inflammation

O=C(O)C[CH2][Ge](=[O])[O][Ge](=[O])[CH2]CC(=O)O [propagermanium, 3-[(2-Carboxyethyl-oxogermyl)oxy-oxogermyl]propanoic acid]
inflammation (CCR2): suppress inflammation

R366A-Q367A-RAGE362-404: mutated RAGE cytosolic tail peptide in which the charged patch is altered (LWQRAARRGEERKAPENQEEEEERAELNQSEEPEAGESSTGGP; cytosolic tail peptide; UniProt Q15109 362-404, looked up, variant R366A Q367A)
overcoming the inhibition of transactivation conferred by mCherry-S391A-RAGE362-404 (RAGE): able to overcome the inhibition

RAGE370-404: N-truncated RAGE peptide without the charged patch Diaph1 binding domain (GEERKAPENQEEEEERAELNQSEEPEAGESSTGGP; UniProt Q15109 370-404, looked up, fragment)
overcoming the inhibition of transactivation conferred by mCherry-S391A-RAGE362-404 (RAGE): able to overcome the inhibition

RAGE385-390: N-truncated RAGE construct eliminating both 380 and 384 (RAELNQ; UniProt Q15109 385-390, looked up, fragment)
inhibition of Ang II-induced ICAM-1 (acting on wild type RAGE) (murine SVEC): loss of the modulatory actions

B1: CCL22: chemokine ligand used to activate CCR4 (protein)
chain: GPYGANMEDSVCCRDYVRYRLPLRVVKHFYWTSDSCPRPGVVLLTFRDKEICADPRVPWVKMILNKLSQ
recruitment of βarrestin2/Venus to CCR4/Rluc8 (CCR4; control): recruitment | recruitment of β-arrestin2/Venus proximal to RAGE/Rluc8 (CCR4; in the presence of CCR4): not and Lack of | BRET signal between Gαi/Nluc and Gγ2/Venus (CCR4; untagged CCR4 co-expressed): observed
